# Source: publication PMC6421522, “Designing Dual Inhibitors of Anaplastic Lymphoma Kinase (ALK) and Bromodomain-4 (BRD4) by Tuning Kinase Selectivity” (Journal of Medicinal Chemistry, 2019)
# Legend:
# HeLa cells = experiment: Mitotic arrest and mitotic markers in HeLa cells (Western blot); type: cell-based
# Method: Protein extracts of cells were prepared by lysis in radioimmunoprecipitation assay buffer (Sigma) supplemented with protease inhibitors (complete protease inhibitor cocktail, Roche). Protein extracts (25 μg) were separated by sodium dodecyl sulfate-polyacrylamide gel electrophoresis and transferred onto poly(vinylidene difluoride) membranes using the Trans-Blot Turbo transfer system (BioRad). After blocking with 5% bovine serum albumin in PBS with 0.1% Tween-20 for 30 min, the membrane was incubated with primary antibodies for 1 h at room temperature. Horseradish peroxidase-linked secondary antibodies were incubated 30 min at room temperature followed by enhanced chemiluminescence (ECL) detection (ECL Western blot substrate, Pierce).
# Primary antibodies were obtained from the following sources: PLK-1 (05-844) and phosphohistone H3 (Ser10) (05806) from Millipore; pPlk1-T210 (5472) from Cell Signaling; pPlk1-S137 (21738) from Abcam; and cyclin B1 (GNS1) and β-actin (A2228) from Sigma-Aldrich served as loading control.
# PAMPA permeability assay = type: in vitro ADME; details: pH 7.4
# Text: Table 3 Physicochemical Properties of 16k | column: result
# ABL1-nonphosphorylated = molecular target: T1, ABL1-nonphosphorylated (Homo sapiens, UniProt P00519); experiment: KINOMEscan scanEDGE; type: binding; details: read-out: % Control (1µM)
# T1 construct: purchased DiscoveRx KINOMEscan (scanEDGE); Thermo Fisher SelectScreen (Z'-LYTE) for PLK-1
# Method: (§1) Compound X was assayed at 1 μM in the DiscoveRx KINOMEscan (scanEDGE) assay platform. The results for single-concentration binding interactions are reported as “%Ctrl” (DMSO = 100%Ctrl), where lower numbers indicate stronger hits.
# ACVR1B = molecular target: T2, ACVR1B (Homo sapiens, UniProt P36896); experiment: KINOMEscan scanEDGE; type: binding; details: read-out: % Control (1µM)
# T2 construct: purchased DiscoveRx KINOMEscan (scanEDGE); Thermo Fisher SelectScreen (Z'-LYTE) for PLK-1
# Method: as §1
# AKT2 = molecular target: T3, AKT2 (Homo sapiens, UniProt P31751); experiment: KINOMEscan scanEDGE; type: binding; details: read-out: % Control (1µM)
# T3 construct: purchased DiscoveRx KINOMEscan (scanEDGE); Thermo Fisher SelectScreen (Z'-LYTE) for PLK-1
# Method: as §1
# AURKA = molecular target: T4, AURKA (Homo sapiens, UniProt O14965); experiment: KINOMEscan scanEDGE; type: binding; details: read-out: % Control (1µM)
# T4 construct: purchased DiscoveRx KINOMEscan (scanEDGE); Thermo Fisher SelectScreen (Z'-LYTE) for PLK-1
# Method: as §1
# BMPR2 = molecular target: T5, BMPR2 (Homo sapiens, UniProt Q13873); experiment: KINOMEscan scanEDGE; type: binding; details: read-out: % Control (1µM)
# T5 construct: purchased DiscoveRx KINOMEscan (scanEDGE); Thermo Fisher SelectScreen (Z'-LYTE) for PLK-1
# Method: as §1
# CHEK1 = molecular target: T6, CHEK1 (Homo sapiens, UniProt O14757); experiment: KINOMEscan scanEDGE; type: binding; details: read-out: % Control (1µM)
# T6 construct: purchased DiscoveRx KINOMEscan (scanEDGE); Thermo Fisher SelectScreen (Z'-LYTE) for PLK-1
# T6 sequence (O14757 whole entry): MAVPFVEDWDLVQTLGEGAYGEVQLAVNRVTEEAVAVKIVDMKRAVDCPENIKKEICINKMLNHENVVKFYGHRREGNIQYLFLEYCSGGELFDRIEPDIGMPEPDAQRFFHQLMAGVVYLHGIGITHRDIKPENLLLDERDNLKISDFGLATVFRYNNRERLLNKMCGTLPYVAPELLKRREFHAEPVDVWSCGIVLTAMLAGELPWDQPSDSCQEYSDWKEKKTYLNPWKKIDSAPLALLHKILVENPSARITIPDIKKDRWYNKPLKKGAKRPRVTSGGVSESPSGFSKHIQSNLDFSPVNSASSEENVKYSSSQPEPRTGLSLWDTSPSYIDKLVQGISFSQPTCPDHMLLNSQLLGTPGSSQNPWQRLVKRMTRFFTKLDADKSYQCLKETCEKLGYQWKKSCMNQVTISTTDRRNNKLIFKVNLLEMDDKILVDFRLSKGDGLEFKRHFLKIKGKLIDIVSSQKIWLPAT
# Method: as §1
# CSF1R = molecular target: T7, CSF1R (Homo sapiens, UniProt P07333); experiment: KINOMEscan scanEDGE; type: binding; details: read-out: % Control (1µM)
# T7 construct: purchased DiscoveRx KINOMEscan (scanEDGE); Thermo Fisher SelectScreen (Z'-LYTE) for PLK-1
# Method: as §1
# CSNK1G2 = molecular target: T8, CSNK1G2 (Homo sapiens, UniProt P78368); experiment: KINOMEscan scanEDGE; type: binding; details: read-out: % Control (1µM)
# T8 construct: purchased DiscoveRx KINOMEscan (scanEDGE); Thermo Fisher SelectScreen (Z'-LYTE) for PLK-1
# Method: as §1
# DYRK1B = molecular target: T9, DYRK1B (Homo sapiens, UniProt Q9Y463); experiment: KINOMEscan scanEDGE; type: binding; details: read-out: % Control (1µM)
# T9 construct: purchased DiscoveRx KINOMEscan (scanEDGE); Thermo Fisher SelectScreen (Z'-LYTE) for PLK-1
# Method: as §1
# EGFR = molecular target: T10, EGFR (Homo sapiens, UniProt P00533); experiment: KINOMEscan scanEDGE; type: binding; details: read-out: % Control (1µM)
# T10 construct: purchased DiscoveRx KINOMEscan (scanEDGE); Thermo Fisher SelectScreen (Z'-LYTE) for PLK-1
# Method: as §1
# EGFR(L858R) = molecular target: T11, EGFR(L858R) (Homo sapiens, UniProt P00533, L858R); experiment: KINOMEscan scanEDGE; type: binding; details: read-out: % Control (1µM)
# T11 construct: purchased DiscoveRx KINOMEscan (scanEDGE); Thermo Fisher SelectScreen (Z'-LYTE) for PLK-1
# Method: as §1
# FGFR3 = molecular target: T12, FGFR3 (Homo sapiens, UniProt P22607); experiment: KINOMEscan scanEDGE; type: binding; details: read-out: % Control (1µM)
# T12 construct: purchased DiscoveRx KINOMEscan (scanEDGE); Thermo Fisher SelectScreen (Z'-LYTE) for PLK-1
# T12 sequence (P22607 23-806): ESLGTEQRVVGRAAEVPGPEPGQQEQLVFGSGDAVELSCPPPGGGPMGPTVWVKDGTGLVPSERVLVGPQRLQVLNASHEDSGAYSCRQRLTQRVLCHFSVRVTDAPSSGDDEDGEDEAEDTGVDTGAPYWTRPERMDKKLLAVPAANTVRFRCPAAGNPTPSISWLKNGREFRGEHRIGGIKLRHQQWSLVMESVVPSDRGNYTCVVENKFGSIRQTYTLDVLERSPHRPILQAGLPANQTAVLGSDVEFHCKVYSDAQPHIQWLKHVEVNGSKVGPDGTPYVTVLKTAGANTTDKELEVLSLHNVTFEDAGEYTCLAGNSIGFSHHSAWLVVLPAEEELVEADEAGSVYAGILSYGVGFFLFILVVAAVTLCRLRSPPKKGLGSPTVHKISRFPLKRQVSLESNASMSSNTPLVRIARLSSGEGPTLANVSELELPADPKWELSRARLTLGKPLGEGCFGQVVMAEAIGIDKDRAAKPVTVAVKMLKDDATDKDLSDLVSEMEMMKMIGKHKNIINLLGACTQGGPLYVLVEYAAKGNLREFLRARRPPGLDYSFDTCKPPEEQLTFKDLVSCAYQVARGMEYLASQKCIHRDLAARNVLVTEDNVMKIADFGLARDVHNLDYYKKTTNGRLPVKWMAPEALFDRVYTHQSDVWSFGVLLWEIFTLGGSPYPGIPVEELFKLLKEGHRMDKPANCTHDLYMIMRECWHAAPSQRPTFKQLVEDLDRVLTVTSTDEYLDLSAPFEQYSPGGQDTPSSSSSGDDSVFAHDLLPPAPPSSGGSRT
# Method: as §1
# JNK1 = molecular target: T13, JNK1 (Homo sapiens, UniProt P45983); experiment: KINOMEscan scanEDGE; type: binding; details: read-out: % Control (1µM)
# T13 construct: purchased DiscoveRx KINOMEscan (scanEDGE); Thermo Fisher SelectScreen (Z'-LYTE) for PLK-1
# Method: as §1
# JNK2 = molecular target: T14, JNK2 (Homo sapiens, UniProt P45984); experiment: KINOMEscan scanEDGE; type: binding; details: read-out: % Control (1µM)
# T14 construct: purchased DiscoveRx (DiscoverX)
# T14 sequence (P45984 whole entry): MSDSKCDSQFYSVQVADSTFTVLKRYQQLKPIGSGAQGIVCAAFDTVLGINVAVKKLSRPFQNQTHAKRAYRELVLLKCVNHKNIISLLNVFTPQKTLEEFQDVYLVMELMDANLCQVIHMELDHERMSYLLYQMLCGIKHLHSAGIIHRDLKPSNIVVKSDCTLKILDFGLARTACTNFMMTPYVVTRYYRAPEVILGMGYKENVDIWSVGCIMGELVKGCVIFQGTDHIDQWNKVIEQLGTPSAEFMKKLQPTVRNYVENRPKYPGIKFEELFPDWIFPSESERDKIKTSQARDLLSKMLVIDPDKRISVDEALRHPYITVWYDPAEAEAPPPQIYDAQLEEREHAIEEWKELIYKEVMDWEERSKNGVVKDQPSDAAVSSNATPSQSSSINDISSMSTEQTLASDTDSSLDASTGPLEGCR
# Method: as §1
# KIT = molecular target: T15, KIT (Homo sapiens, UniProt P10721); experiment: KINOMEscan scanEDGE; type: binding; details: read-out: % Control (1µM)
# T15 construct: purchased DiscoveRx (DiscoverX)
# Method: as §1
# KIT(D816V) = molecular target: T16, KIT(D816V) (Homo sapiens, UniProt P10721, D816V); experiment: KINOMEscan scanEDGE; type: binding; details: read-out: % Control (1µM)
# T16 construct: purchased DiscoveRx KINOMEscan (scanEDGE); Thermo Fisher SelectScreen (Z'-LYTE) for PLK-1
# Method: as §1
# LKB1 = molecular target: T17, LKB1 (Homo sapiens, UniProt Q15831); experiment: KINOMEscan scanEDGE; type: binding; details: read-out: % Control (1µM)
# T17 construct: purchased DiscoveRx KINOMEscan (scanEDGE); Thermo Fisher SelectScreen (Z'-LYTE) for PLK-1
# Method: as §1
# MEK1 = molecular target: T18, MEK1 (Homo sapiens, UniProt Q02750); experiment: KINOMEscan scanEDGE; type: binding; details: read-out: % Control (1µM)
# T18 construct: purchased DiscoveRx KINOMEscan (scanEDGE); Thermo Fisher SelectScreen (Z'-LYTE) for PLK-1
# Method: as §1
# MET = molecular target: T19, MET (Homo sapiens, UniProt P08581); experiment: KINOMEscan scanEDGE; type: binding; details: read-out: % Control (1µM)
# T19 construct: purchased DiscoveRx KINOMEscan (scanEDGE); Thermo Fisher SelectScreen (Z'-LYTE) for PLK-1
# Method: as §1
# MKNK1 = molecular target: T20, MKNK1 (Homo sapiens, UniProt Q9BUB5); experiment: KINOMEscan scanEDGE; type: binding; details: read-out: % Control (1µM)
# T20 construct: purchased DiscoveRx KINOMEscan (scanEDGE); Thermo Fisher SelectScreen (Z'-LYTE) for PLK-1
# Method: as §1
# MKNK2 = molecular target: T21, MKNK2 (Homo sapiens, UniProt Q9HBH9); experiment: KINOMEscan scanEDGE; type: binding; details: read-out: % Control (1µM)
# T21 construct: purchased DiscoveRx KINOMEscan (scanEDGE); Thermo Fisher SelectScreen (Z'-LYTE) for PLK-1
# Method: as §1
# MLK1 = molecular target: T22, MLK1 (Homo sapiens, UniProt P80192); experiment: KINOMEscan scanEDGE; type: binding; details: read-out: % Control (1µM)
# T22 construct: purchased DiscoveRx KINOMEscan (scanEDGE); Thermo Fisher SelectScreen (Z'-LYTE) for PLK-1
# Method: as §1
# PAK1 = molecular target: T23, PAK1 (Homo sapiens, UniProt Q13153); experiment: KINOMEscan scanEDGE; type: binding; details: read-out: % Control (1µM)
# T23 construct: purchased DiscoveRx KINOMEscan (scanEDGE); Thermo Fisher SelectScreen (Z'-LYTE) for PLK-1
# Method: as §1
# PCTK1 = molecular target: T24, PCTK1 (Homo sapiens, UniProt Q00536); experiment: KINOMEscan scanEDGE; type: binding; details: read-out: % Control (1µM)
# T24 construct: purchased DiscoveRx KINOMEscan (scanEDGE); Thermo Fisher SelectScreen (Z'-LYTE) for PLK-1
# T24 sequence (Q00536 whole entry): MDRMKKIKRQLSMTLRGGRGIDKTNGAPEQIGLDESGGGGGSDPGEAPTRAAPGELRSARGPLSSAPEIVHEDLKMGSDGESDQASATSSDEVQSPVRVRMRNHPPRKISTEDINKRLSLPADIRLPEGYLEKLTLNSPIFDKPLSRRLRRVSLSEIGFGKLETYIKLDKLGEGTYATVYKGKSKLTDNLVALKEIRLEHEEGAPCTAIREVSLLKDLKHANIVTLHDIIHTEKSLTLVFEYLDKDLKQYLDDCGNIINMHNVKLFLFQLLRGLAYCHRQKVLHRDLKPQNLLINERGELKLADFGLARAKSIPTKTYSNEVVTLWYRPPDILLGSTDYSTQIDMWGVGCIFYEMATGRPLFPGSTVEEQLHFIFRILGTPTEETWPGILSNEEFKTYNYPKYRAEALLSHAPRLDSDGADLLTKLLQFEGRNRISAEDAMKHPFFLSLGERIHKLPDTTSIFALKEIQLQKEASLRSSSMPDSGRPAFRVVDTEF
# Method: as §1
# PDGFRA = molecular target: T25, PDGFRA (Homo sapiens, UniProt P16234); experiment: KINOMEscan scanEDGE; type: binding; details: read-out: % Control (1µM)
# T25 construct: purchased DiscoveRx KINOMEscan (scanEDGE); Thermo Fisher SelectScreen (Z'-LYTE) for PLK-1
# T25 sequence (P16234 24-1089): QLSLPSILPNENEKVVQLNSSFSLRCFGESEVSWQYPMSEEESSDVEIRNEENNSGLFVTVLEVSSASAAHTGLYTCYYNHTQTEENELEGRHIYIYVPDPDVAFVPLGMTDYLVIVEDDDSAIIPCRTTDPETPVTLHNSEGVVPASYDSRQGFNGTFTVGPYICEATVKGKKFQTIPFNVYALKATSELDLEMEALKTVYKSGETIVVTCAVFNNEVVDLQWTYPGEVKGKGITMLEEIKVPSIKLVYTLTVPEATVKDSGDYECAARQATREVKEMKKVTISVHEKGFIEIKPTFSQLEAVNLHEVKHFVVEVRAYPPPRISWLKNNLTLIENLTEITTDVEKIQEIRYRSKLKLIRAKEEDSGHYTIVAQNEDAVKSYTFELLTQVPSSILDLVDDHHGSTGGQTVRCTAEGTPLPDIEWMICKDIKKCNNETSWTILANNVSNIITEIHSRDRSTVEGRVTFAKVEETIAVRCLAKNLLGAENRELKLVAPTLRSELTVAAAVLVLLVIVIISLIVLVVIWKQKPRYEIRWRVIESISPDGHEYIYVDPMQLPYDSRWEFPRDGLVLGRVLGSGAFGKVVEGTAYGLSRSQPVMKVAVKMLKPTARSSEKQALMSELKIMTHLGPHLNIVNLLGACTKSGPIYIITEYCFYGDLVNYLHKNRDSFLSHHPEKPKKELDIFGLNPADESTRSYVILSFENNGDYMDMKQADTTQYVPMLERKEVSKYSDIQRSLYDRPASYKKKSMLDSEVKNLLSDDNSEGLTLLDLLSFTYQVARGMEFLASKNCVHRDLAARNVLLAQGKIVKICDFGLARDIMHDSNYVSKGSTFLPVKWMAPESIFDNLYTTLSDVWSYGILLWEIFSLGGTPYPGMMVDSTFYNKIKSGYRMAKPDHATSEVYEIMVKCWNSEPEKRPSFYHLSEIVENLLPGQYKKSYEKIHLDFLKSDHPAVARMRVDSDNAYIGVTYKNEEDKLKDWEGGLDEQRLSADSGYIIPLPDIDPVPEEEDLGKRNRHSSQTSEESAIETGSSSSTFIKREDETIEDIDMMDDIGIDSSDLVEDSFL
# Method: as §1
# PDPK1 = molecular target: T26, PDPK1 (Homo sapiens, UniProt O15530); experiment: KINOMEscan scanEDGE; type: binding; details: read-out: % Control (1µM)
# T26 construct: purchased DiscoveRx KINOMEscan (scanEDGE); Thermo Fisher SelectScreen (Z'-LYTE) for PLK-1
# T26 sequence (O15530 whole entry): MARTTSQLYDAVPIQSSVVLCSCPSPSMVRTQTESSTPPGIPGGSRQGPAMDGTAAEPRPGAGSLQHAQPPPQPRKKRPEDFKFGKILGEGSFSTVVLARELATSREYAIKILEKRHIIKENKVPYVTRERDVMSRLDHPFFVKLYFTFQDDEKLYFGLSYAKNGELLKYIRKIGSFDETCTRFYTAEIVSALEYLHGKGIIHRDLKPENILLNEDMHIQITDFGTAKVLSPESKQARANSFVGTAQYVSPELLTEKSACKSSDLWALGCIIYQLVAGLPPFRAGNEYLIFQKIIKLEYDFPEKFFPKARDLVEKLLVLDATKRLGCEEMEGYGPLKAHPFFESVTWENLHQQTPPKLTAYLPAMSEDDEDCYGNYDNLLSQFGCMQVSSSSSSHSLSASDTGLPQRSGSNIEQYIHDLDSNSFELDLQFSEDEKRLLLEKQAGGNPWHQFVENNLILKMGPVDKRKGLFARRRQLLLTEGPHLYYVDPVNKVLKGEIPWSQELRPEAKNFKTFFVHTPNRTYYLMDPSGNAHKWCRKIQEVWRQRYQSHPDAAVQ
# Method: as §1
# PIK3CG = molecular target: T27, PIK3CG (Homo sapiens, UniProt P48736); experiment: KINOMEscan scanEDGE; type: binding; details: read-out: % Control (1µM)
# T27 construct: purchased DiscoveRx KINOMEscan (scanEDGE); Thermo Fisher SelectScreen (Z'-LYTE) for PLK-1
# Method: as §1
# PLK4 = molecular target: T28, PLK4 (Homo sapiens, UniProt O00444); experiment: KINOMEscan scanEDGE; type: binding; details: read-out: % Control (1µM)
# T28 construct: purchased DiscoveRx KINOMEscan (scanEDGE); Thermo Fisher SelectScreen (Z'-LYTE) for PLK-1
# Method: as §1
# RAF1 = molecular target: T29, RAF1 (Homo sapiens, UniProt P04049); experiment: KINOMEscan scanEDGE; type: binding; details: read-out: % Control (1µM)
# T29 construct: purchased DiscoveRx KINOMEscan (scanEDGE); Thermo Fisher SelectScreen (Z'-LYTE) for PLK-1
# Method: as §1
# RIOK2 = molecular target: T30, RIOK2 (Homo sapiens, UniProt Q9BVS4); experiment: KINOMEscan scanEDGE; type: binding; details: read-out: % Control (1µM)
# T30 construct: purchased DiscoveRx KINOMEscan (scanEDGE); Thermo Fisher SelectScreen (Z'-LYTE) for PLK-1
# T30 sequence (Q9BVS4 whole entry): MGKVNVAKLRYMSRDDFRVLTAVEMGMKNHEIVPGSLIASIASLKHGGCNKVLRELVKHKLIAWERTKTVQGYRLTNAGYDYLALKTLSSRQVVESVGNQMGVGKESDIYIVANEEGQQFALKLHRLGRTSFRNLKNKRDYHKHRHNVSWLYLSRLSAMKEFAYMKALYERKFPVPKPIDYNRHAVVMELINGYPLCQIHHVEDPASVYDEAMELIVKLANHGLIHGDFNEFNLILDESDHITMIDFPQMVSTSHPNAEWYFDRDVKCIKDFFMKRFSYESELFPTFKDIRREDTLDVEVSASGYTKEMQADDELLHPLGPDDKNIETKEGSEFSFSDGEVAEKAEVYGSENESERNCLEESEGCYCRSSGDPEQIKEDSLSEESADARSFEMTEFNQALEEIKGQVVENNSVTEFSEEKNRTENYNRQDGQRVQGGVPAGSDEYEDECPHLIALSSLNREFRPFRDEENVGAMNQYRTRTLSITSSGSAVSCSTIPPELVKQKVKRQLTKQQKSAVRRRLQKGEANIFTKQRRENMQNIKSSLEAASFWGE
# Method: as §1
# ROCK2 = molecular target: T31, ROCK2 (Homo sapiens, UniProt O75116); experiment: KINOMEscan scanEDGE; type: binding; details: read-out: % Control (1µM)
# T31 construct: purchased DiscoveRx KINOMEscan (scanEDGE); Thermo Fisher SelectScreen (Z'-LYTE) for PLK-1
# Method: as §1
# SRC = molecular target: T32, SRC (Homo sapiens, UniProt P12931); experiment: KINOMEscan scanEDGE; type: binding; details: read-out: % Control (1µM)
# T32 construct: purchased DiscoveRx KINOMEscan (scanEDGE); Thermo Fisher SelectScreen (Z'-LYTE) for PLK-1
# Method: as §1
# VEGFR2 = molecular target: T33, VEGFR2 (Homo sapiens, UniProt P35968); experiment: KINOMEscan scanEDGE; type: binding; details: read-out: % Control (1µM)
# T33 construct: purchased DiscoveRx (DiscoverX)
# Method: as §1
# ZAP70 = molecular target: T34, ZAP70 (Homo sapiens, UniProt P43403); experiment: KINOMEscan scanEDGE; type: binding; details: read-out: % Control (1µM)
# T34 construct: purchased DiscoveRx (DiscoverX)
# T34 sequence (P43403 whole entry): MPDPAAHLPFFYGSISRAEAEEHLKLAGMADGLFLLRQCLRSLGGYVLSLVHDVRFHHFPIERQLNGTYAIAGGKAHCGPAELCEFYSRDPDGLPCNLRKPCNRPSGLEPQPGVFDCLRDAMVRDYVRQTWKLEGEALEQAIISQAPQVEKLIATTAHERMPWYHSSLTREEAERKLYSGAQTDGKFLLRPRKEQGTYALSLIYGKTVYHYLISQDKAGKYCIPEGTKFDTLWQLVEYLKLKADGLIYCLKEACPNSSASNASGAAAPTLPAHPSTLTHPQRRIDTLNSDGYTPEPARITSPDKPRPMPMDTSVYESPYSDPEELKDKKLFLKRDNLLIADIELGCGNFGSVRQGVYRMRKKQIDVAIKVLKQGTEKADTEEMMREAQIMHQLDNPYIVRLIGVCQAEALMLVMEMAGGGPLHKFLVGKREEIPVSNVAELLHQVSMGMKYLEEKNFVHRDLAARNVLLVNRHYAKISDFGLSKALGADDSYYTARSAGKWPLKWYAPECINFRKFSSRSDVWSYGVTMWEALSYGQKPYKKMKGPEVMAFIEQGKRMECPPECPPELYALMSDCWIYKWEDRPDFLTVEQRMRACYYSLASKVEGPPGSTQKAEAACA
# Method: as §1
smiles,measurement,setting,value
"CCOc1cc(C2CCN(C)CC2)ccc1Nc1ncc2c(n1)N(Cc1cc(C)cs1)[C@H](CC)C(=O)N2C [16k, (R)-2-((2-Ethoxy-4-(1-methylpiperidin-4-yl)phenyl)amino)-7-ethyl-5-methyl-8-((4-methylthiophen-2-yl)methyl)-7,8-dihydropteridin-6(5H)-one]",concentration up to which no increase in mitotic markers and PLK-1 phosphorylation sites,"HeLa cells; HeLa cells, Western blot",> 10 µM
same,selectivity window for ALK^F1174L over PLK-1 in cells,HeLa cells; based on the cellular data,10–20 fold
same,expected cellular PLK-1 potency after similar drop-off,HeLa cells; extrapolated from BI-2536 drop-off,> 2500 nM
same,PAMPA pH7.4,PAMPA permeability assay,49 × 10^–6 cm/s
same,remaining binding at 1 µM,ABL1-nonphosphorylated,84%
same,remaining binding at 1 µM,ACVR1B,85%
same,remaining binding at 1 µM,AKT2,100%
same,remaining binding at 1 µM,AURKA,99%
same,remaining binding at 1 µM,BMPR2,100%
same,remaining binding at 1 µM,CHEK1,100%
same,remaining binding at 1 µM,CSF1R,100%
same,remaining binding at 1 µM,CSNK1G2,100%
same,remaining binding at 1 µM,DYRK1B,63%
same,remaining binding at 1 µM,EGFR,86%
same,remaining binding at 1 µM,EGFR(L858R),69%
same,remaining binding at 1 µM,FGFR3,98%
same,remaining binding at 1 µM,JNK1,64%
same,remaining binding at 1 µM,JNK2,44%
same,remaining binding at 1 µM,KIT,100%
same,remaining binding at 1 µM,KIT(D816V),100%
same,remaining binding at 1 µM,LKB1,82%
same,remaining binding at 1 µM,MEK1,100%
same,remaining binding at 1 µM,MET,94%
same,remaining binding at 1 µM,MKNK1,100%
same,remaining binding at 1 µM,MKNK2,60%
same,remaining binding at 1 µM,MLK1,100%
same,remaining binding at 1 µM,PAK1,100%
same,remaining binding at 1 µM,PCTK1,95%
same,remaining binding at 1 µM,PDGFRA,96%
same,remaining binding at 1 µM,PDPK1,98%
same,remaining binding at 1 µM,PIK3CG,98%
same,remaining binding at 1 µM,PLK4,100%
same,remaining binding at 1 µM,RAF1,100%
same,remaining binding at 1 µM,RIOK2,74%
same,remaining binding at 1 µM,ROCK2,100%
same,remaining binding at 1 µM,SRC,100%
same,remaining binding at 1 µM,VEGFR2,87%
same,remaining binding at 1 µM,ZAP70,94%
